Laboratory results taken from US11352396B2, “Antimicrobial peptides and methods of using same” (Zoetis Services LLC, priority 2017, dated 2022).
Residues, ends and D or L forms follow the SMILES beside them.

Legend:
human red blood cells = assay: Red blood cell hemolysis assay, human; assay type: cell-based; details: compared with SEQ ID NO: 13 (tachyplesin), FIG. 1
Procedure: (§1) SEQ ID NO: 1 was selected for further research. Toxicity of SEQ ID NO: 1 to eukaryotic blood cells was compared to that of tachyplesin (SEQ ID NO: 13). A standard, well referenced red blood cell hemolysis assay was employed against multiple species to test the lysis potential of the peptides. Red blood cells (RBCs) were prepared and isolated by several centrifuge and wash steps to remove the plasma fraction. A dose titration (50 μM to 0.05 μM) of test peptides and control peptide melittin were spotted from 50 mM stocks in a 384 well plate. Prepared RBCs were incubated with peptide for one hour at 37° C. Percent hemolysis was measured by optical density at 405 nm and utilizing 1% TritonX100 as hundred percent effect (HPE) and phosphate buffer alone as zero percent effect (ZPE).

beagle red blood cells = assay: Red blood cell hemolysis assay, beagle; assay type: cell-based; details: compared with SEQ ID NO: 13 (tachyplesin), FIG. 1
Procedure: as §1

bovine red blood cells = assay: Red blood cell hemolysis assay, bovine; assay type: cell-based; details: compared with SEQ ID NO: 13 (tachyplesin)
Procedure: as §1

rat red blood cells = assay: Red blood cell hemolysis assay, rat; assay type: cell-based; details: compared with SEQ ID NO: 13 (tachyplesin), FIG. 1
Procedure: as §1

mouse red blood cells = assay: Red blood cell hemolysis assay, mouse; assay type: cell-based; details: compared with SEQ ID NO: 13 (tachyplesin)
Procedure: as §1

S. aureus ATCC 29213 = assay type: cell-based; design: key to SA 29213: MIC in μM (lowest conc. with no visible growth); details: S. aureus 29213, Table 6
Method in brief: (§2)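 Broth microdilution followed CLSI VET01-S2, with peptides serially diluted to in-assay concentrations of 50 μM to 0.05 μM. A 0.5 McFarland inoculum diluted 1:250 in Mueller-Hinton Broth was incubated with peptide for 18-20 hours. MIC was read visually as the first well without visible growth.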

[1] = tested on: MRSP (Methicillin-Resistant Staphylococcus pseudintermedius); assay: MIC against selected strains of MRSP; assay type: cell-based; design: key to MIC MRSP 72192 / MIC MRSP 76923 / MR 71994 / Mr 88493 / MR 72035 / MR 72192 / MR 76923 / MR 79882 / MR 80279 / MR 81926 / MR 86002 / MR 87665: MIC in μM (visual, first well with no growth); details: for MR 71994: MRSP strain 71994, Table 6; for MR 72035: MRSP strain 72035, Table 6; for MR 72192: MRSP strain 72192, Table 6; for MR 76923: MRSP strain 76923, Table 6; for MR 79882: MRSP strain 79882, Table 6; for MR 80279: MRSP strain 80279, Table 6; for MR 81926: MRSP strain 81926, Table 6; for MR 86002: MRSP strain 86002, Table 6; for MR 87665: MRSP strain 87665, Table 6; for Mr 88493: MRSP strain 88493, Table 6
Method in brief: (§3)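 Broth microdilution MIC following CLSI VET01-S2: peptides titrated 50 μM to 0.05 μM in assay, inoculum a 0.5 McFarland suspension diluted 1:250 in Mueller-Hinton broth. Incubated overnight (18–20 h); MIC taken visually as lowest concentration without visible growth.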

[2] = tested on: MSSP (Methicillin-Susceptible Staphylococcus pseudintermedius); assay: MIC against selected strains of MSSP; assay type: cell-based; design: MIC MSSP 49051 / MIC MSSP 81923 / MIC MSSP 84250 / Effect on MSSP 86000 / Effect on MSSP 72036 / Effect on MSSP 78032: unit not given beside the values; Effect on MSSP 71990 / Effect on MSSP 86001 / Effect on MSSP 72191 / Effect on MSSP 76986 / Effect on MSSP 77378 / Effect on MSSP 81923 / Effect on MSSP 84250 / Effect on MSSP 84658: unit: µM; details: for SP 49051: S. pseudintermedius 49051, Table 6; for Effect on MSSP 71990: strain 71990, Table 5; for Effect on MSSP 72036: strain 72036, Table 5; for Effect on MSSP 72191: strain 72191, Table 5; for Effect on MSSP 76986: strain 76986, Table 5; for Effect on MSSP 77378: strain 77378, Table 5; for Effect on MSSP 78032: strain 78032, Table 5; for Effect on MSSP 81923: strain 81923, Table 5; for Effect on MSSP 84250: strain 84250, Table 5; for Effect on MSSP 84658: strain 84658, Table 5; for Effect on MSSP 86000: strain 86000, Table 5; for Effect on MSSP 86001: strain 86001, Table 5
Method in brief: as §3

cRBC = assay type: cell-based, canine
Method in brief: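 Washed, plasma-free red cells were incubated with peptide titrated from 50 µM to 0.05 µM for 1 h at 37 °C. Hemolysis was read as OD at 405 nm, scaled between phosphate buffer alone (0%) and 1% Triton X-100 (100%).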

E. coli ATCC 25922 = assay type: cell-based; details: E. coli 25922, Table 6
Method in brief: as §2

[3] = tested on: Canine-derived epithelial keratinocyte (CPEK) cells; assay type: cell-based
Method in brief: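 CPEK cells were dosed with peptides at 50 μM to 0.05 μM and incubated overnight at 37 °C, 5% CO2. Viability was read by CellTiter-Glo luminescence. Percent effect was normalised to 0.1% Triton X-100 (high) and phosphate buffer alone (zero).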

Row | Molecule | SA 29213 (S. aureus ATCC 29213) | MR 71994 [1] | MR 72035 [1] | MR 72192 [1] | MR 76923 [1] | MR 79882 [1] | MR 80279 [1] | MR 81926 [1] | MR 86002 [1] | MR 87665 [1] | Mr 88493 [1] | SP 49051 [2] | Effect on MSSP 71990 [2] | Effect on MSSP 72036 [2] | Effect on MSSP 72191 [2] | Effect on MSSP 76986 [2] | Effect on MSSP 77378 [2] | Effect on MSSP 78032 [2] | Effect on MSSP 81923 [2] | Effect on MSSP 84250 [2] | other results
1 | CC[C@H](C)[C@H](NC(=O)CNC(=O)[C@H](CCCNC(=N)N)NC(=O)[C@H](Cc1ccc(O)cc1)NC(=O)[C@H](CS)NC(=O)[C@@H](NC(=O)[C@H](CCCNC(=N)N)NC(=O)[C@H](Cc1ccccc1)NC(=O)[C@H](CS)NC(=O)[C@H](Cc1c[nH]c2ccccc12)NC(=O)[C@@H](N)CCCCN)C(C)C)C(=O)N[C@@H](CS)C(=O)N[C@@H](Cc1ccc(O)cc1)C(=O)N[C@@H](CCCNC(=N)N)C(=O)N[C@@H](CCCNC(=N)N)C(=O)N[C@@H](CS)C(=O)N[C@@H](CCCNC(=N)N)C(=O)N[C@@H](CC(=O)O)C(=O)O [SEQ ID NO: 1, KWCFRVCYRGICYRRCRD] (H-KWCFRVCYRGICYRRCRD-OH; N-terminus and C-terminus assumed) |  |  |  |  |  |  |  |  |  |  |  |  |  |  |  |  |  |  |  |  | times less toxic than SEQ ID NO: 13, human red blood cells (human red blood cells): 2-4 times; times less toxic than SEQ ID NO: 13, beagle red blood cells (beagle red blood cells): 2-4 times; difference in toxicity versus SEQ ID NO: 13, bovine red blood cells (bovine red blood cells): negligible; times less toxic than SEQ ID NO: 13, rat red blood cells (rat red blood cells): 2-4 times; difference in toxicity versus SEQ ID NO: 13, mouse red blood cells (mouse red blood cells): negligible
2 | 103 (KWCFRVCKRGICYRRCRD; Artificial Antimicrobial peptide) [compound 103] | 25 | 3.1 | 3.1 | 3.1 | 3.1 | 3.1 | 3.1 | 3.1 | 3.1 | 3.1 | 3.1 | 3.1 | 3.1 | 3.1 | 3.1 | 3.1 | 3.1 | 3.1 | 3.1 | 6.2 | Effect on MSSP 84658 [2]: 3.1; Effect on MSSP 86000 [2]: 3.1; Effect on MSSP 86001 [2]: 3.1; cRBC (50 μM) (cRBC): 7.9; EC 25922 (E. coli ATCC 25922): 6.2 µM; CPEK (50 μM) [3]: −0.5
3 | 113 (KWCFRVCYRGICYRRCAD; Artificial Antimicrobial peptide) [compound 113] | 6.2 | 1.6 | 1.6 | 1.6 | 1.6 | 1.6 | 1.6 | 1.6 | 1.6 | 1.6 | 1.6 | 1.6 | 1.6 | 1.6 | 1.6 | 1.6 | 1.6 | 1.6 | 1.6 | 1.6 | Effect on MSSP 84658 [2]: 1.6; Effect on MSSP 86000 [2]: 1.6; Effect on MSSP 86001 [2]: 1.6; cRBC (50 μM) (cRBC): 86.3; EC 25922 (E. coli ATCC 25922): 1.6 µM; CPEK (50 μM) [3]: 15.7
